Measurements as given in patent US20090053721A1, “VOLTAGE-GATED ION CHANNEL MUTANTS FOR USE IN IDENTIFYING ION CHANNEL MODULATING COMPOUNDS” (CARDIOME PHARMA CORP., priority 2007, published 2009).
Several values for one entry are separate records, joined by “and”; a condition that tells them apart may be missing. Equal values may be shown once. Where a name gives a salt, the structure may show the parent alone.

Experiments:
[1] = molecular target: T1, Kv1.5 WT channel (Homo sapiens, UniProt P22460); assay: Voltage-dependence of block (Woodhull fit), wild-type Kv1.5; format: cell-based; details: for blocking site, electrical distance across the membrane: Woodhull fit, +10 to +60 mV; for calculated binding site within the electric field (fractional electrical distance δ): from the inside of the pore
T1 construct: subcloned as a fragment back into full-length Kv1.5; expressed in transfected cells
T1 sequence (P22460 whole entry, the tested form may be a part): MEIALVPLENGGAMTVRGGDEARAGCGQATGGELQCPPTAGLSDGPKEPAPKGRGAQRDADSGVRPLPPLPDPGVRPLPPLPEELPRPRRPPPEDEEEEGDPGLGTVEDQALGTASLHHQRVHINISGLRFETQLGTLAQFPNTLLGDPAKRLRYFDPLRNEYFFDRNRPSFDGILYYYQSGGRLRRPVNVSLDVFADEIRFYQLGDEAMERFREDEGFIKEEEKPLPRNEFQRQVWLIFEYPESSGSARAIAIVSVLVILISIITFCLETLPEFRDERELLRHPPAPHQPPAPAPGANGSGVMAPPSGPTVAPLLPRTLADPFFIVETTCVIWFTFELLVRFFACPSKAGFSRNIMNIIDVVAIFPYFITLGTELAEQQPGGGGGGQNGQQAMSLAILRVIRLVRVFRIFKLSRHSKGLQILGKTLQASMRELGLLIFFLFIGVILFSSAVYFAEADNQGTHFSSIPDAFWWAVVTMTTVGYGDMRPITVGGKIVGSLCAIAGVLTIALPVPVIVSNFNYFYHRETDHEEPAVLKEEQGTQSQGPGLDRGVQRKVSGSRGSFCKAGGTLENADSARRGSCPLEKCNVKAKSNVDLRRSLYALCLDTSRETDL
Experimental: (§1) Coverslips with adherent cells plated on the surface were placed in a superfusion chamber (volume 300 μl) containing the control bath solution at 22° C. Whole-cell current recording and analysis were carried out using an Axopatch 200B amplifier and pClamp10 software (Axon Instruments, CA, USA). Patch electrodes were pulled from thin-walled borosilicate glass (World Precision Instruments, FL, USA) on a horizontal micropipette puller (Sutter Instruments, CA, USA). […] Analogue capacity compensation and 80% series resistance compensation were used during whole cell measurements. Membrane potentials were not corrected for junction potentials that arise between the pipette and bath solution. For Kv1.5 current recordings, a holding potential of −80 mV was used. Data were sampled at 10-20 kHz and filtered at 5 to 10 kHz. To assess drug block, half-log escalating concentrations of drug were added to the flowing bath solution and current traces were recorded with 400 ms depolarizing pulses to +60 mV at a frequency of 0.1 Hz.
f=[D]/([D]+Kd*e^−δzFE/RT)
where F, R, z and T have their usual meanings, δ represents the fractional electrical distance, i.e., the fraction of the transmembrane electrical field sensed by a single charge at the receptor site. Kd* represents the binding affinity at the reference voltage (0 mV). The current amplitude (Idrug and Icontrol) was measured at the end of a 400 ms depolarization.
The amount of block was measured at the end of the pulse at the time indicated by the arrow on each set of data records, and, after normalization to the control, current density was plotted as a function of the depolarization potential (FIGS. 7B, 8B). Data were then fit to a standard model of drug block to obtain the electrical distance of the blocking site into the electric field from the inside of the channel (Woodhull, 1973).

[2] = molecular target: T1, Kv1.5 WT channel; assay: Whole-cell patch-clamp block of wild-type Kv1.5 current in HEK293 cells; format: cell-based
Excerpt: Stable lines of HEK293 cells expressing Kv1.5, or transient transfection of mutant Kv1.5 channels were used in all experiments. Primers to generate mutant channels were synthesized by Integrated DNA Technologies, Inc. (Coralville, Iowa, USA), and mutants were generated using the Stratagene Quikchange kit (Stratagene, Calif., USA). The presence of the mutation was confirmed by DNA sequencing, and because of the size of the WT Kv1.5 clone, only the sequenced region harboring the targeted nucleotides was subcloned as a fragment back into full-length Kv1.5. Transient transfections were performed with HEK 293 cells plated at 20-30% confluency on sterile coverslips in 25 mm Petri dishes one day prior to transfection. 0.1-4 μg of ion channel DNA was incubated with 1 μg of eGFP DNA (to enable detection of transfected cells) and 2 μl of lipofectamine 2000 (Invitrogen) in 100 μl of Opti-MEM. This was added to the cells for overnight incubation after washing the media with 900 μl of MEM with 10% FBS.
The cells were grown in Minimal Essential Medium (MEM) at 37° C. in an air/5% CO2 incubator. Media contained 10% bovine serum and 0.5 mg/ml geneticin for stable lines. On the day before recording, stably-expressing cells were washed with MEM, treated with trypsin/EGTA for one minute and plated on 25 mm^2 coverslips. All cell culture supplies were obtained from Invitrogen (Mississauga, ON, Canada).
Control bath solution contained (in mM): 5 KCl, 135 NaCl, 2.8 sodium acetate, 1 MgCl2, 10 HEPES and 1 CaCl2, adjusted to pH 7.4 with NaOH. Patch pipettes contained (in mM): 130 KCl, 5 EGTA, 1 MgCl2, 10 HEPES, 4 Na2ATP, and 0.1 GTP, adjusted to pH 7.2 with KOH. All chemicals used to make solutions were obtained from Sigma-Aldrich (Mississauga, ON, Canada). […] Flecamide (Sigma-Aldrich, lot number 094K4057) was prepared as a stock solution (100 mM) in 100% DMSO. DMSO concentrations for either drug never exceeded 0.1% v/v in the final experimental solutions.
as §1, with “Membrane potentials were not corrected for junction potentials that arise between the pipette and bath solution. For Kv1.5 current recordings, a holding potential of −80 mV was used. Data were sampled at 10-20 kHz and filtered at 5 to 10 kHz.” left out, “Hz. […]” for “Hz.”

| IC50 ([2]; steady-state current, +60 mV) | SMILES | blocking site, electrical distance across the membrane [1] [%] | calculated binding site within the electric field (fractional electrical distance δ) [1] | Hill coefficient [2] | reduction of outward current ([2]; 10 μM vernakalant) | Fractional Block ± SEM ([2]; 10 μM vernakalant, −80 to +60 mV, 400 ms, 0.1 Hz) |
| --- | --- | --- | --- | --- | --- | --- |
|  | COc1ccc(CCO[C@@H]2CCCC[C@H]2N2CC[C@@H](O)C2)cc1OC [Vernakalant, 3-Pyrrolidinol, 1-[(1R,2R)-2-[2-(3,4-dimethoxyphenyl)ethoxy]cyclohexyl]-,hydrochloride, (3R)] | ~17 | 0.17 | 1.00 | approximately 50% | 0.45 ± 0.03 |
| 38.1 µM and 38 µM | O=C(NCC1CCCCN1)c1cc(OCC(F)(F)F)ccc1OCC(F)(F)F (centres unmarked) [Flecainide] | ~17 | 0.17 |  |  |  |
